Experimental data reported in US20250176904A1, “PRE-DOSING METHOD OF ASSESSING DRUG BENEFITS IN PATIENTS” (priority 2022, published 2025).
“And” between values parts separate entries of the source, which are not always exact repeats. Equal values may be shown once. “Also recorded” adds a separate entry of the source.

Experiments:
Male Long Evans rats = experiment: Progressive ratio responding for food (lever press, break point, session duration); type: in vivo
Procedure: Animals and housing: Male Long Evans rats were used (source: Charles River Laboratories, St. Constant, Quebec). All study animals were singly housed in a vivarium under a 12 h light:dark cycle (lights on: 06:00 h-18:00 h). All behavioural testing was during the light phase. Rats were placed on a restricted diet regimen, where they were fed once a day with approximately 20 g of standard laboratory chow at the completion of testing procedures (16:00 h-18:00 h). For these animals, water was freely available except during testing. All animal use procedures were performed in accordance with the principles of the Canadian Council on Animal Care (CCAC).
Methods: A total of 72 rats were used in the psilocybin experiment. The basic test design involved training animals to lever press for a food reward (45 mg Bioserv pellets) under a progressive ratio (PR) schedule in which the number of responses required to achieve a pellet increases for successive reinforcers. The progressive ratio was derived from the equation ratio=[5×e^(0.2×reinforcer #)−5], and was as follows: […], etc.
Subjects were administered psilocybin (0.025, 0.05, 0.1 mg/kg) or vehicle control according to Latin square design, in which each animal received each treatment over repeated test sessions with 2-3 day intervals between each testing cycle. Subjects were also subgrouped into low responders (N=24) based on having the lowest average break point measure recorded over 7 days prior to testing and a separate analysis was conducted on this cohort.
Statistical analysis: Data are presented as means±SEM. Data from the progressive ratio task was analysed by one way (treatment) repeated measures ANOVA (Statistica Version 11, Statsoft Inc. [2012]). In the event of a significant main effect, post-hoc comparisons were carried out with Dunnett's test for comparison of drug treatment to vehicle control. Both study cohorts of “All” and “Low responders” were analysed separately. In all cases the accepted level of significance was P<0.05. Effect sizes for group mean differences were also calculated using partial eta squared (Statistica Version 11, Statsoft Inc. [2012]). In addition a correlational analysis (parametric: Pearson R; non-parametric: Spearman R) was conducted at each dose level to look at the relationship between baseline (vehicle) response and magnitude of change in break point and lever press following each psilocybin dose.

healthy volunteers = conditions: human, in vivo, po
[1] = all 72 rats, psilocybin 0.025, 0.05, 0.1 mg/kg SC vs vehicle, ANOVA main effect
[2] = low responder subgroup N=24, psilocybin 0.05-0.1 mg/kg relative to vehicle control

CN(C)CCc1c[nH]c2cccc(OP(=O)(O)O)c12 [Psilocybin, 4-phosphoryloxy-N,N-dimethyltryptamine]
number of lever press (Male Long Evans rats; [1]): no main effect of treatment | session duration (Male Long Evans rats; [1]): no main effect of treatment | break point (Male Long Evans rats; all 72 rats, psilocybin 0.025, 0.05, 0.1 mg/kg SC vs vehicle, post-hoc comparison): no treatment group was significantly different to vehicle | relationship between baseline responding and % change in break point or lever press (Male Long Evans rats; low responder subgroup N=24, 0.025 mg/kg SC): no such correlation; also recorded: no significant correlation | relationship between baseline responding and % change in break point or lever press (Male Long Evans rats; low responder subgroup N=24, 0.05 mg/kg SC, Pearson R and Spearman R): inverse correlation; also recorded: significant correlation | relationship between baseline responding and % change in break point or lever press (Male Long Evans rats; low responder subgroup N=24, 0.1 mg/kg SC, Pearson R and Spearman R): inverse correlation; also recorded: significant correlation | session duration (Male Long Evans rats; low responder subgroup N=24, 0.1 mg/kg, mean±SEM): 18.7 ± 2.5 min | session duration (treatment effect) (Male Long Evans rats; low responder subgroup N=24, psilocybin 0.025-0.1 mg/kg vs vehicle, ANOVA): no treatment effect | break point (Male Long Evans rats; [2]): increases | lever press (Male Long Evans rats; [2]): increases | RTI Median Five-Choice Reaction Time 2 Hr (healthy volunteers): 381 and 347 and 377 and 386.5 and 446 and 343 | RTI Median Five-Choice Reaction Time 4 Hr (healthy volunteers): 330 and 346 and 377 and 413 and 431 and 330.5
